Assay results taken from patent publication US10849881B2, “Octahydro-cyclobuta[1,2-c;3,4-c′]dipyrrol-2-yl” (Hoffmann-La Roche Inc., priority 2013, dated 2020).

Biological target: ATX (human His-tagged) (Homo sapiens (Human), UniProt Q13822)
Assay: Human ATX enzyme inhibition assay (fluorescence quenching, MR121 substrate)
Assay type: biochemical
Details: 30 nM ATX, 1 μM MR121 substrate, 30° C., pH 8.0
Procedure, shortened: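 Fluorescence quenching assay with MR121/tryptophan-labelled substrate analogue in Tris-HCl buffer (140 mM NaCl, CaCl2, MgCl2, 0.01% Triton X-100, pH 8.0). Serially diluted compounds were preincubated 15 min at 30 °C with 30 nM ATX (final), then 1 µM substrate (final) added and incubated 15 min at 30 °C.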

IC50 [nM] | Structure (SMILES)
20 | O=C(c1cccc(-c2ccc(Cl)cc2)c1)N1C[C@@H]2[C@H](C1)[C@H]1CN(C(=O)c3ccc4[nH]nnc4c3)C[C@@H]21 [Example 1.089, (1H-benzotriazol-5-yl)-[(3aS,3bS,6aR,6bR)-5-(4′-chloro-biphenyl-3-carbonyl)-octahydro-cyclobuta[1,2-c;3,4-c′]dipyrrol-2-yl]-methanone]
11.5 | O=C(c1cc2cc(OC(F)(F)F)ccc2[nH]1)N1C[C@@H]2[C@H](C1)[C@H]1CN(C(=O)[C@@H]3CCc4[nH]nnc4C3)C[C@@H]21 [Example 1.019, [(3aR,3bS,6aR,6bS)-5-((R)-4,5,6,7-tetrahydro-1H-benzotriazole-5-carbonyl)-octahydro-cyclobuta[1,2-c;3,4-c′]dipyrrol-2-yl]-(5-trifluoromethoxy-1H-indol-2-yl)-methanone]
7.5 | CCOc1cc(C(=O)N2C[C@@H]3[C@H](C2)[C@H]2CN(C(=O)[C@@H]4CCc5[nH]nnc5C4)C[C@@H]32)nc2cc(Cl)ccc12 [Example 1.077, (7-chloro-4-ethoxy-quinolin-2-yl)-[(3aR,3bS,6aR,6bS)-5-((R)-4,5,6,7-tetrahydro-1H-benzotriazole-5-carbonyl)-octahydro-cyclobuta[1,2-c;3,4-c′]dipyrrol-2-yl]methanone]
3 | CCn1ccc2c(OCC(F)(F)F)c(C(=O)N3C[C@@H]4[C@H]5CN(C(=O)c6ccc7[nH]nnc7c6)C[C@H]5[C@@H]4C3)ccc21 [Example 1.082, [(3aS,3bS,6aR,6bR)-5-(1H-benzotriazole-5-carbonyl)-octahydro-cyclobuta[1,2-c;3,4-c′]dipyrrol-2-yl]-[1-ethyl-4-(2,2,2-trifluoro-ethoxy)-1H-indol-5-yl]-methanone]
14.3 | O=C(c1ccc2[nH]nnc2c1)N1C[C@@H]2[C@H](C1)[C@H]1CN(C(=O)c3ccc4c(c3)[nH]c3ccc(Cl)cc34)C[C@@H]21 [Example 1.068, [(3aS,3bS,6aR,6bR)-5-(1H-benzotriazole-5-carbonyl)-octahydro-cyclobuta[1,2-c;3,4-c′]dipyrrol-2-yl]-(6-chloro-9H-carbazol-2-yl)-methanone]
8 | O=C(c1ccc(-c2ccc(Cl)cc2)cc1)N1C[C@@H]2[C@H](C1)[C@H]1CN(C(=O)c3ccc4[nH]nnc4c3)C[C@@H]21 [Example 1.017, [(3aS,3bS,6aR,6bR)-5-(1H-benzotriazole-5-carbonyl)-octahydro-cyclobuta[1,2-c;3,4-c′]dipyrrol-2-yl]-(4′-chloro-biphenyl-4-yl)-methanone]
13 | COc1cc(C(=O)N2C[C@@H]3[C@H](C2)[C@H]2CN(C(=O)[C@@H]4CCc5[nH]nnc5C4)C[C@@H]32)cc2ccccc12 [Example 1.044, (4-methoxy-naphthalen-2-yl)-[(3aR,3bS,6aR,6bS)-5-((R)-4,5,6,7-tetrahydro-1H-benzotriazole-5-carbonyl)-octahydro-cyclobuta[1,2-c;3,4-c′]dipyrrol-2-yl]-methanone]
3.5 | O=C(c1ccc2[nH]nnc2c1)N1C[C@@H]2[C@H](C1)[C@H]1CN(C(=O)c3cc(OCC4CC4)c4ccccc4n3)C[C@@H]21 [Example 1.071, [(3aR,3bS,6aR,6bS)-5-(1H-benzotriazole-5-carbonyl)-octahydro-cyclobuta[1,2-c;3,4-c′]dipyrrol-2-yl]-(4-cyclopropylmethoxy-quinolin-2-yl)-methanone]
2.5 | CCOc1cc(C(=O)N2C[C@@H]3[C@H]4CN(C(=O)c5ccc6[nH]nnc6c5)C[C@H]4[C@@H]3C2)nc2ccc(C(F)(F)F)cc12 [Example 1.080, (1H-benzotriazol-5-yl)-[(3aS,3bR,6aS,6bR)-5-(4-ethoxy-6-trifluoromethyl-quinoline-2-carbonyl)-octahydro-cyclobuta[1,2-c;3,4-c′]dipyrrol-2-yl]-methanone]
5 | O=C(c1ccc2[nH]nnc2c1)N1C[C@@H]2[C@H](C1)[C@H]1CN(C(=O)c3cc(OCC(F)(F)F)c4ccccc4n3)C[C@@H]21 [Example 1.084, (1H-benzotriazol-5-yl)-{(3aS,3bR,6aS,6bR)-5-[4-(2,2,2-trifluoro-ethoxy)-quinoline-2-carbonyl]-octahydro-cyclobuta[1,2-c;3,4-c′]dipyrrol-2-yl}-methanone]
4 | CC(C)Oc1cc(C(=O)N2C[C@@H]3[C@H]4CN(C(=O)c5ccc6[nH]nnc6c5)C[C@H]4[C@@H]3C2)nc2cc(C(F)(F)F)ccc12 [Example 1.070, [(3aR,3bS,6aR,6bS)-5-(1H-benzotriazole-5-carbonyl)-octahydro-cyclobuta[1,2-c;3,4-c′]dipyrrol-2-yl]-(4-isopropoxy-7-trifluoromethyl-quinolin-2-yl)-methanone]
11.5 | COc1cc(C(=O)N2C[C@@H]3[C@H](C2)[C@H]2CN(C(=O)c4ccc5[nH]nnc5c4)C[C@@H]32)cc2ccccc12 [Example 1.026, [(3aS,3bS,6aR,6bR)-5-(1H-benzotriazole-5-carbonyl)-octahydro-cyclobuta[1,2-c;3,4-c′]dipyrrol-2-yl]-(4-methoxy-naphthalen-2-yl)-methanone]
4.5 | O=C(OCc1cc(Cl)cc(Cl)c1)N1C[C@@H]2[C@H](C1)[C@H]1CN(C(=O)c3ccc4[nH]nnc4c3)C[C@@H]21 [Example 2.001, (3aR,3bS,6aR,6bS)-5-(1H-Benzotriazole-5-carbonyl)-octahydro-cyclobuta[1,2-c;3,4-c′]dipyrrole-2-carboxylic Acid 3,5-dichloro-benzyl Ester]
687 | O=C(c1ccc2[nH]nnc2c1)N1C[C@@H]2[C@H](C1)[C@H]1CN(C(=O)c3ccc4ccccc4n3)C[C@@H]21 [Example 1.038, [(3aR,3bS,6aR,6bS)-5-(1H-benzotriazole-5-carbonyl)-octahydro-cyclobuta[1,2-c;3,4-c′]dipyrrol-2-yl]-quinolin-2-yl-methanone]
22 | CC1(C)CC(C(=O)N2C[C@@H]3[C@H]4CN(C(=O)c5ccc6[nH]nnc6c5)C[C@H]4[C@@H]3C2)Cc2ccccc21 (stereo partly drawn) [Example 1.055, [(3aS,3bR,6aS,6bR)-5-(1H-benzotriazole-5-carbonyl)-octahydro-cyclobuta[1,2-c;3,4-c′]dipyrrol-2-yl]-(4,4-dimethyl-1,2,3,4-tetrahydro-naphthalen-2-yl)-methanone]
828 | N#Cc1ccc2[nH]c(C(=O)N3C[C@@H]4[C@H]5CN(C(=O)c6ccc7[nH]nnc7c6)C[C@H]5[C@@H]4C3)cc2c1 [Example 1.027, 2-[(3aR,3bS,6aR,6bS)-5-(1H-benzotriazole-5-carbonyl)-octahydro-cyclobuta[1,2-c;3,4-c′]dipyrrole-2-carbonyl]-1H-indole-5-carbonitrile]
54 | Cc1ccc2cc(C(=O)N3C[C@@H]4[C@H](C3)[C@H]3CN(C(=O)c5ccc6[nH]nnc6c5)C[C@@H]43)ccc2c1 [Example 1.013, [(3aS,3bS,6aR,6bR)-5-(1H-benzotriazole-5-carbonyl)-octahydro-cyclobuta[1,2-c;3,4-c′]dipyrrol-2-yl]-(6-methyl-naphthalen-2-yl)-methanone]
243 | Cc1ccc2cc(C(=O)N3C[C@@H]4[C@H]5CN(C(=O)c6ccc7[nH]nnc7c6)C[C@H]5[C@@H]4C3)[nH]c2c1 [Example 1.035, [(3aR,3bS,6aR,6bS)-5-(1H-benzotriazole-5-carbonyl)-octahydro-cyclobuta[1,2-c;3,4-c′]dipyrrol-2-yl]-(6-methyl-1H-indol-2-yl)-methanone]
18 | CCOc1nc(C(=O)N2C[C@@H]3[C@H](C2)[C@H]2CN(C(=O)c4ccc5[nH]nnc5n4)C[C@@H]32)cc2ccccc12 [Example 1.092, [(3aS,3bS,6aR,6bR)-5-(1-ethoxy-isoquinoline-3-carbonyl)-octahydro-cyclobuta[1,2-c;3,4-c′]dipyrrol-2-yl]-(1H-[1,2,3]triazolo[4,5-b]pyridin-5-yl)-methanone]
20 | O=C(c1ccc2[nH]nnc2c1)N1C[C@@H]2[C@H](C1)[C@H]1CN(C(=O)c3ccc(-c4ccc(Cl)cc4)c(=O)[nH]3)C[C@@H]21 [Example 1.075, 6-[(3aR,3bS,6aR,6bS)-5-(1H-benzotriazole-5-carbonyl)-octahydro-cyclobuta[1,2-c;3,4-c′]dipyrrole-2-carbonyl]-3-(4-chloro-phenyl)-1H-pyridin-2-one]

Structure (SMILES) | IC50 [nM]
O=C(c1cnc(OCC(F)(F)F)c(Br)c1)N1C[C@@H]2[C@H](C1)[C@H]1CN(C(=O)c3ccc4[nH]nnc4c3)C[C@@H]21 [Example 1.100, (1H-benzotriazol-5-yl)-{(3aS,3bS,6aR,6bR)-5-[5-bromo-6-(2,2,2-trifluoro-ethoxy)-pyridine-3-carbonyl]-octahydro-cyclobuta[1,2-c;3,4-c′]dipyrrol-2-yl}-methanone] | 10
O=C(c1ccc(OCC(F)(F)F)nc1)N1C[C@@H]2[C@H](C1)[C@H]1CN(C(=O)c3ccc4[nH]nnc4c3)C[C@@H]21 [Example 1.099, (1H-benzotriazol-5-yl)-{(3aS,3bS,6aR,6bR)-5-[6-(2,2,2-trifluoro-ethoxy)-pyridine-3-carbonyl]-octahydro-cyclobuta[1,2-c;3,4-c′]dipyrrol-2-yl}-methanone] | 277
CCOc1cc(C(=O)N2C[C@@H]3[C@H]4CN(C(=O)c5ccc6[nH]nnc6c5)C[C@H]4[C@@H]3C2)nc2ccc(Cl)cc12 [Example 1.096, [(3aR,3bS,6aR,6bS)-5-(1H-benzotriazole-5-carbonyl)-octahydro-cyclobuta[1,2-c;3,4-c′]dipyrrol-2-yl]-(6-chloro-4-ethoxy-quinolin-2-yl)-methanone] | 12
O=C(c1ccc2[nH]nnc2c1)N1C[C@@H]2[C@H](C1)[C@H]1CN(C(=O)c3cccc(OCC(F)(F)F)n3)C[C@@H]21 [Example 1.098, (1H-benzotriazol-5-yl)-{(3aS,3bR,6aS,6bR)-5-[6-(2,2,2-trifluoro-ethoxy)-pyridine-2-carbonyl]-octahydro-cyclobuta[1,2-c;3,4-c′]dipyrrol-2-yl}-methanone] | 859
